Type in all cases: cell-based
The test system of assay [1] is circBRIP1 in HCT116 cells. Nature of the assay: DHX9 circBRIP1 cellular target engagement SYBR Green assay (qPCR). The note with it: Homo sapiens, HCT-116, circBRIP1, HCT116 cells, read-out: DHX9 Cellular Target Engagement EC50. In general terms: In qPCR the cycle at which signal appears reflects the starting amount.
Assay [2] relates to LS411N cells. Nature of the assay: DHX9 cellular proliferation assay (CellTiter-Glo), LS411N (CRC-MSI). The note with it: Homo sapiens, LS-411N, read-out: LS411N (CRC-MSI-H) Antiproliferative IC50. Background: In ATP-based viability assays light output follows the ATP content of the culture.
The subject of assay [3] is NCI-H747 cells. Briefly: DHX9 cellular proliferation assay (CellTiter-Glo), NCI-H747 (CRC-MSS). The note with it: Homo sapiens.
[4] abbreviates: LS411N, CRC-MSI-H, performed at Pharmaron.
Where [5] appears, read: NCI-H747, NCI-H747, CRC-MSS, performed at Pharmaron, read-out: H747 (CRC-MSS) Antiproliferative IC50.
[6] abbreviates: NCI-H747, NCI-H747, performed at Pharmaron, read-out: H747 (CRC-MSS) Antiproliferative IC50.
[7] abbreviates: NCI-H747, read-out: H747 (CRC-MSS) Antiproliferative IC50.

Like-named read-outs stand apart in the source and are kept apart here.

Turning to `CCS(=O)(=O)Nc1cc(Cl)cc(NC(=O)c2cc(-c3ncccn3)c(C)s2)c1` [Example 27], the EC50 (in general, the concentration needed to bring the measured effect to its halfway point) in assay [1] (SyBr assay (marked ^+)) is 49.7 nM. Moreover, the IC50 (commonly the concentration at which inhibition is half-maximal) in assay [2] (setting [4]) is 117 nM; in assay [3] (setting [5]) it was over 10000 nM.

In the case of `Cc1cccc(O)c1-c1csc(C(=O)Nc2cc(Br)cc(NS(C)(=O)=O)c2)c1` [Example 19], in assay [1] (SyBr assay (marked ^+)), the EC50 is 2110 nM. Moreover, the IC50 in assay [2] (setting [4]) is 1080 nM; in assay [3] (setting [5]), over 10000 nM.

In the case of `Cn1cc(C(=O)Nc2cc(Cl)cc(NS(C)(=O)=O)c2)cc1-c1ccc(N2CC(F)(F)C2)cn1` [Example 595, N-(3-chloro-5-methanesulfonamidophenyl)-5-[5-(3,3-difluoroazetidin-1-yl)pyridin-2-yl]-1-methyl-1H-pyrrole-3-carboxamide], in assay [1] (^+ SyBr assay was used), the EC50 was 35.2 nM. Also, the IC50 in assay [2] (LS411N, performed at Pharmaron) is 167 nM; in assay [3] (setting [6]), 7400 nM.

Regarding `Cn1cc(C(=O)Nc2cc(Cl)cc(NS(C)(=O)=O)c2)cc1-c1ccc(N2CC3(COC3)C2)cn1` [Example 277], the EC50 in assay [1] (SyBr assay (marked ^+)) turned out to be 47.6 nM. For the same molecule, the IC50 in assay [2] (setting [4]) was determined as 66.7 nM; in assay [3] (setting [5]), 4700 nM.

With `Cn1cc(C(=O)Nc2cc(Cl)cc(NS(C)(=O)=O)c2)cc1-c1ccc(N2CCC2)cn1` [Example 538], the half-maximal effective concentration (EC50) in assay [1] (^+ SyBr assay was used) was found to be 57.4 nM. Further, the IC50 in assay [2] (LS411N, performed at Pharmaron) stood at 124 nM; in assay [3] (setting [6]) it was 3620 nM.

In the case of `CS(=O)(=O)Nc1cc(F)cc(NC(=O)c2cc(-c3ncccc3OCc3ccccc3)cs2)c1` [Example 214], the EC50 in assay [1] (SyBr assay (marked ^+)) came out at 106 nM. The IC50 is 203 nM in assay [2] (setting [4]) and 7150 nM in assay [3] (setting [5]).

As to `Cc1cc(C(=O)Nc2cc(Cl)cc(NS(C)(=O)=O)c2)cn1-c1ccc(Cl)cn1` [Example 389], in assay [1] (SyBr assay (marked ^+)), the EC50 is 110 nM. The IC50 was found to be 113 nM in assay [2] (setting [4]) and 8040 nM in assay [3] (setting [5]).

Regarding `CN(C)C(=O)c1sc(C(=O)Nc2cc(Cl)cc(NS(C)(=O)=O)c2)cc1-c1ncccc1OCc1ccccc1` [Example 213], the EC50 in assay [1] (SyBr assay (marked ^+)) is 74.6 nM. In addition, the IC50 in assay [2] (setting [4]) was 173 nM; in assay [3] (setting [5]), over 10000 nM.

In the case of `Cc1cccnc1-n1cc(C(=O)Nc2cc(Br)cc(NS(C)(=O)=O)c2)cn1` [Example 49], in assay [1] (SyBr assay (marked ^+)), the EC50 turned out to be 434 nM. Further, the IC50 is 901 nM in assay [2] (setting [4]) and over 10000 nM in assay [3] (setting [5]).

Take `CC1CN(c2ccc(-n3cc(C(=O)Nc4cc(Cl)cc(NS(C)(=O)=O)c4)cn3)nc2)CCO1` (stereo not drawn) [Example 92]: in assay [1] (SyBr assay (marked ^+)), the EC50 was 281 nM. In addition, the values for the IC50 in assay [2] (setting [4]) and in assay [3] (setting [5]) were 1100 nM and over 10000 nM, respectively.

As to `CS(=O)(=O)Nc1cc(Cl)cc(NC(=O)c2cnn(-c3ncccc3OCc3cccc(Cl)c3)c2)c1` [Example 70], the EC50 in assay [1] (SyBr assay (marked ^+)) worked out at 107 nM. In addition, the IC50 was 375 nM in assay [2] (setting [4]) and over 10000 nM in assay [3] (setting [5]).

For the molecule `Cc1cc(C(=O)Nc2cc(Cl)cc(NS(C)(=O)=O)c2)cn1-c1ccc(N2CCCC2=O)cn1` [Example 410], the EC50 in assay [1] (^+ SyBr assay was used) is 21.2 nM. Also, the IC50 in assay [2] (LS411N, performed at Pharmaron) is 373 nM; in assay [3] (setting [6]), over 10000 nM.

Consider `CCS(=O)(=O)Nc1cc(Cl)cc(NC(=O)c2cc(-c3ccccn3)c(C)s2)c1` [Example 28], for which, in assay [1] (SyBr assay (marked ^+)), the EC50 was 25.8 nM. Also, the IC50 was 78.8 nM in assay [2] (setting [4]) and over 10000 nM in assay [3] (setting [5]).

With `CS(=O)(=O)Nc1cc(Br)cc(NC(=O)c2cnn(-c3ccccn3)c2)c1` [Example 36, N-(3-bromo-5-(methylsulfonamido)phenyl)-1-(pyridin-2-yl)-1H-pyrazole-4-carboxamide], the EC50 in assay [1] (SyBr assay (marked ^+)) is 313 nM. In addition, the IC50 was 1080 nM in assay [2] and over 10000 nM in assay [3] (setting [7]).

Take `CS(=O)(=O)Nc1cc(Br)cc(NC(=O)c2cnn(-c3cc(C#N)ccc3OCc3ccccc3)c2)c1` [Example 67]: in assay [1] (SyBr assay (marked ^+)), the EC50 was determined as 297 nM. The half-maximal inhibitory concentration (IC50) in assay [2] (setting [4]) was 1050 nM; in assay [3] (setting [5]) it was over 10000 nM.

On to `Cc1cccnc1-c1cc(C(=O)Nc2cc(Br)cc(NS(C)(=O)=O)c2)cn1C` [Example 84, N-(3-bromo-5-(methylsulfonamido)phenyl)-1-methyl-5-(3-methylpyridin-2-yl)-1H-pyrrole-3-carboxamide], for which, in assay [1] (SyBr assay (marked ^+)), the EC50 stood at 194 nM. For the same molecule, the IC50 in assay [2] is 385 nM; in assay [3] (setting [7]), over 10000 nM.

These data come from patent US12162867B2, “Inhibitors of RNA helicase DHX9 and uses thereof” (ACCENT THERAPEUTICS, INC., priority 2022, dated 2024).
